Tested on: recombinant human carboxylesterases (CE1b, CE1c and CE2)
Assay: Hydrolysis test by hydrolase (recombinant human carboxylesterases)
Type: in vitro ADME
Procedure: Various recombinant human carboxylesterases (CE1b, CE1c and CE2) were prepared in order to confirm the hydrolysis tendency of the prodrug by carboxylesterase (CE) which is a hydrolase. The initial enzyme concentration provided by the manufacturer was 5 mg/mL, which was diluted 1/50 in 100 mM potassium phosphate buffer to obtain a protein solution of 100 μg/mL. For the compound of Example 1—which is a prodrug compound to be tested, 5 mg/mL DMSO stock was used as a working solution, which was diluted 1/100 in acetonitrile to obtain 50 μg/mL concentration solution, and again diluted to a concentration of 1/100 in 100 mM potassium phosphate buffer to obtain a drug solution with a final concentration of 500 ng/mL. […] The samples were deproteinized with acetonitrile containing an internal standard (IS) and centrifuged, and the supernatant was injected into LC-MS/MS for analysis. By correcting the obtained peak area of the prodrug with the peak area of IS, the peak response at the time of collection of each sample was obtained, and the residual ratio (% remaining) compared to the initial value was converted. […]
Such result is analyzed that the compound of Example 1 was hydrolyzed by an esterase present in the reaction system and converted into a compound of Formula 2, which is the parent drug.

contribution of each human recombinant CE isozyme to hydrolysis into compound of Formula 2 (CE1b, CE1c, CE2 compared): greater by CE1b and CE1c than by CE2 | residual ratio (% remaining) of prodrug (spiked with human recombinant CE isozyme, after reaction for 60 minutes, LC-MS/MS): most of the prodrug was lost
SMILES: CC(=O)O[C@]1(CF)OC(=O)C[C@@H]1NC(=O)[C@]1(C(C)C)CC(c2nccc3ccccc23)=NO1 [Example 1, (2S,3S)-2-(fluoromethyl)-3-((R)-5-isopropyl-3-(isoquinolin-1-yl)-4,5-dihydroisoxazole-5-carboxamido)-5-oxotetrahydrofuran-2-yl acetate]
